Usually inhibition stands for the relative decrease from the control value, in per cent.

The source of these data is ChEMBL document CHEMBL3414448, “Advances in the discovery of novel antimicrobials targeting the assembly of bacterial cell division protein FtsZ” (Eur J Med Chem, 2015).

Assay [1] concerns the target T1, Cell division protein FtsZ (Escherichia coli K-12) (UniProt P0A9A6).
T1 sequence (whole entry): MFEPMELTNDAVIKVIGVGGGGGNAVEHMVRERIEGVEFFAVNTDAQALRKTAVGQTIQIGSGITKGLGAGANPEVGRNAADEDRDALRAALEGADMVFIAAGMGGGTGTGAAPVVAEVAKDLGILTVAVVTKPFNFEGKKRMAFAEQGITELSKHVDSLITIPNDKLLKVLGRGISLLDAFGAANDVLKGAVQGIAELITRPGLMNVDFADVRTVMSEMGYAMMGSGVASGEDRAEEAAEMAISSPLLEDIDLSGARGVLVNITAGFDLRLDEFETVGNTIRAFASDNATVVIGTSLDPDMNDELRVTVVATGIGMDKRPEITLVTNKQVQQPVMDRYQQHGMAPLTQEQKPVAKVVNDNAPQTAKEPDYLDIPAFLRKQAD
As to the kind of experiment: Inhibition of Escherichia coli FtsZ assembly.

For assay [2], the target named is T2, Cell division protein FtsZ (Bacillus subtilis (strain 168)) (UniProt P17865).
T2 sequence (whole entry): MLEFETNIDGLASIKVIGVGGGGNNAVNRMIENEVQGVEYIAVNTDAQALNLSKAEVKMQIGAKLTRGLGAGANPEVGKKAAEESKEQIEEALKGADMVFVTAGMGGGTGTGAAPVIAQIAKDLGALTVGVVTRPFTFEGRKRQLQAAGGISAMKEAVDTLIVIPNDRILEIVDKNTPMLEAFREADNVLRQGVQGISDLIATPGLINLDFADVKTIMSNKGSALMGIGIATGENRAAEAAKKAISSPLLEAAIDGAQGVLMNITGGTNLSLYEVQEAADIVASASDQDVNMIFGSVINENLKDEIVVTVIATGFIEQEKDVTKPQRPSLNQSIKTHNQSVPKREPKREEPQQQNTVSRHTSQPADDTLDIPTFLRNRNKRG
The assay can be described thus: Inhibition of Bacillus subtilis FtsZ GTPase activity. The following applies: concentration not given here.

Assay [3] has as its target T3, Cell division protein FtsZ (Staphylococcus aureus) (UniProt P0A031).
T3 sequence (whole entry): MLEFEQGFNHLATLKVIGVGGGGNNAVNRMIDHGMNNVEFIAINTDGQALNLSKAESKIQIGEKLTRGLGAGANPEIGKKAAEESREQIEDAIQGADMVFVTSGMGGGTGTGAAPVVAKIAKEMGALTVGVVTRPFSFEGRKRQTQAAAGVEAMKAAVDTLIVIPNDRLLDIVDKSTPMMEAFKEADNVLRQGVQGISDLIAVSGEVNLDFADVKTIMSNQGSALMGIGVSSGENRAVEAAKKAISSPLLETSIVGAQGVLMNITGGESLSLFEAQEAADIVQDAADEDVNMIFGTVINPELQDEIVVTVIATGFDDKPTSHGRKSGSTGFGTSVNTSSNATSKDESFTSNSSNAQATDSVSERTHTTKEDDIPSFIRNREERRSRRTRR
The assay can be described thus: Inhibition of FtsZ in methicillin-resistant Staphylococcus aureus assessed as reduction in methicillin MIC (reference value: 32 ug/ml).

A short description of assay [4]: Activation of FtsZ (unknown origin) assessed as increase in enzyme GTPase activity at 30 uM.
Assay [5] can be described thus: Inhibition of FtsZ (unknown origin) assessed as reduction in frequency of Z-rings per unit cell length. The settings on record: concentration not given here.
For assay [6], the target named is T1, Cell division protein FtsZ (Escherichia coli K-12). As to the kind of experiment: Inhibition of FtsZ in Escherichia coli assessed as Z-ring containing cells level at 4 and 8 ug/ml (reference value: 88%). Also on record: scale not given: the % may be the effect or the level left.

As for `COc1c(OC(C)=O)ccc(/C=N/c2c(C(C)C)cccc2C(C)C)c1[N+](=O)[O-]`, the ID50 in assay [1] came to 7.6 µM.

Turning to `O=C(Oc1cc(OC(=O)c2ccc(O)c(Cl)c2)c2ccccc2c1)c1ccc(O)c(Cl)c1`, in assay [2], the inhibition is < 20%.

In the case of `CC(C)c1c(O)ccc2c1CC[C@H]1C(C)(C)CCC[C@]21C`, in assay [3], the MIC was determined as 4 µg/mL. With `O=C(Oc1cc(OC(=O)c2cc(O)cc(O)c2)c2ccccc2c1)c1cc(O)c(O)c(O)c1`, the inhibition in assay [2] was < 20%. With `COc1cc(/C=C/C(=O)CC(=O)/C=C/c2ccc(O)c(OC)c2)ccc1O`, the Activity in assay [4] was 35%. Regarding `COc1ccc2cc3[n+](cc2c1OC)CCc1cc2c(cc1-3)OCO2`, the inhibition in assay [5] was 50%. For the compound `NCC[C@H](O)C(=O)N[C@@H]1C[C@H](N)[C@@H](O[C@H]2O[C@H](CN)[C@@H](O)[C@H](O)[C@H]2O)[C@H](O)[C@H]1O[C@H]1O[C@H](CO)[C@@H](O)[C@H](N)[C@H]1O`, the Activity in assay [6] stood at 35%.

Turning to `COc1ccc(/N=C/c2ccc(OC(C)=O)c(OC)c2[N+](=O)[O-])cc1`, the ID50 in assay [1] worked out at 2.1 µM.
